Test results: patent US10221129B2, “Inhibitors of human immunodeficiency virus replication” (ViiV HEALTHCARE UK (NO.5) LIMITED, priority 2015, dated 2019)

Tests used:
[1] = test system: recombinant NL4-3 virus (nef section replaced with Renilla luciferase gene) in MT-2 cells; assay: HIV cell culture assay (antiviral activity, luciferase readout); type: cell-based; conditions: Renilla, NL43, MT-2 cells infected for 4-5 days with recombinant NL4-3 Renilla luciferase virus
Procedure: HIV cell culture assay—MT-2 cells, 293T cells and the proviral DNA clone of NL4-3 virus were obtained from the NIH AIDS Research and Reference Reagent Program. MT-2 cells were propagated in RPMI 1640 media supplemented with 10% heat inactivated fetal bovine serum (FBS), 100 jag/ml penicillin G and up to 100 units/mL streptomycin. The 293T cells were propagated in DMEM media supplemented with 10% heat inactivated FBS, 100 μg/mL penicillin G and 100 μg/mL streptomycin. A recombinant NL4-3 proviral clone, in which a section of the nef gene was replaced with the Renilla luciferase gene, was used to make the reference virus used in these studies. The recombinant virus was prepared through transfection of the recombinant NL4-3 proviral clone into 293T cells using Transit-293 Transfection Reagent from Mirus Bio LLC (Madison, Wis.). Supernatant was harvested after 2-3 days and the amount of virus present was titered in MT-2 cells using luciferase enzyme activity as a marker by measuring luciferase enzyme activity. Luciferase was quantitated using the EnduRen Live Cell Substrate from Promega (Madison, Wis.). Antiviral activities of compounds toward the recombinant virus were quantified by measuring luciferase activity in MT-2 cells infected for 4-5 days with the recombinant virus in the presence of serial dilutions of the compound.
(Johnson V A, Byington R T. Infectivity Assay. In Techniques in HIV Research. ed. Aldovini A, Walker B D. 71-76. New York: Stockton Press. 1990).

[2] = Compound cytotoxicity, XTT-based colorimetric assay; type: cell-based; conditions: human, uninfected MT2 cells, day 4, XTT
Procedure: Compound cytotoxicity and the corresponding CC50 values were determined using the same protocol as described in the antiviral assay except that uninfected cells were used. Cytotoxicity was assessed on day 4 in uninfected MT2 cells by using a XTT (2,3-bis[2-Methoxy-4-nitro-5-sulfophenyl]-2H-tetrazolium-5-carboxyanilide inner salt)-based colorimetric assay (Sigma-Aldrich, St Louis, Mo.).

SMILES | EC50 [1] | CC50 at 4 days [2]
COc1ccc(N(C)C(=O)[C@H](Cc2ccccc2)NC(=O)NS(=O)(=O)NCC(=O)N2CCN(c3ccccc3)CC2)cc1 [CA-58] | 7450 nM | > 100 µM
COc1ccc(N(C)C(=O)[C@H](Cc2ccccc2)NC(=O)NS(=O)(=O)NCC(=O)N2CCOCC2)cc1 [CA-59] | 6140 nM | > 100 µM
COc1ccc(N(C)C(=O)[C@H](Cc2ccccc2)NC(=O)NS(=O)(=O)Nc2ccccc2C(F)(F)F)cc1 [CA-60] | 870 nM | > 100 µM
COc1ccc(N(C)C(=O)[C@H](Cc2ccccc2)NC(=O)NS(=O)(=O)n2ccc3ccncc32)cc1 [CA-61] | 400 nM | > 100 µM
COc1ccc(N(C)C(=O)[C@H](Cc2ccccc2)NC(=O)NS(=O)(=O)n2c(C)cc3ccncc32)cc1 [CA-62] | 3690 nM | > 100 µM
COc1ccc(N(C)C(=O)[C@H](Cc2ccccc2)NC(=O)NS(=O)(=O)n2nc(-c3ccccc3)c3ccccc32)cc1 [CA-63] | 30200 nM | 73.7 µM
COc1ccc(N(C)C(=O)[C@H](Cc2ccccc2)NC(=O)NS(=O)(=O)n2c(C)cc3ccc(OC)cc32)cc1 [CA-64] | 440 nM | 62.4 µM
COc1ccc(N(C)C(=O)[C@H](Cc2ccccc2)NC(=O)NS(=O)(=O)n2c(C)cc3cc(F)c(O)cc32)cc1 [CA-65] | 4040 nM | > 100 µM
COc1ccc(N(C)C(=O)[C@H](Cc2ccccc2)NC(=O)NS(=O)(=O)n2ncc3c(Cl)nc(Cl)cc32)cc1 [CA-66] | 14600 nM | > 100 µM
CN(C(=O)[C@H](Cc1cc(F)cc(F)c1)NC(=O)NS(=O)(=O)N(C)c1ccccn1)c1ccc2scnc2c1 [CA-113] | 140 nM | > 100 µM
CN(C(=O)[C@H](Cc1cc(F)cc(F)c1)NC(=O)NS(=O)(=O)Nc1ccccn1)c1ccc2scnc2c1 [CA-114] | 100 nM | > 100 µM
CN(C(=O)[C@H](Cc1cc(F)cc(F)c1)NC(=O)NS(=O)(=O)Nc1ccccc1)c1ccc2scnc2c1 [CA-115] | 60 nM | > 100 µM
CN(C(=O)[C@H](Cc1cc(F)cc(F)c1)NC(=O)NS(=O)(=O)Nc1cccc(Cl)c1)c1ccc2scnc2c1 [CA-116] | 60 nM | 73.2 µM
CN(C(=O)[C@H](Cc1cc(F)cc(F)c1)NC(=O)NS(=O)(=O)N(C)c1ccccc1F)c1ccc2scnc2c1 [CA-117] | 120 nM | > 100 µM
COc1ccc(N(C)S(=O)(=O)NC(=O)N[C@@H](Cc2cc(F)cc(F)c2)C(=O)N(C)c2ccc3scnc3c2)cn1 [CA-118] | 160 nM | > 100 µM
COc1cccc(N(C)S(=O)(=O)NC(=O)N[C@@H](Cc2cc(F)cc(F)c2)C(=O)N(C)c2ccc3scnc3c2)c1 [CA-119] | 60 nM | > 33.3 µM
CN(C(=O)[C@H](Cc1cc(F)cc(F)c1)NC(=O)NS(=O)(=O)N(C)c1cccnc1)c1ccc2scnc2c1 [CA-120] | 270 nM | > 100 µM
CCN(c1cccnc1)S(=O)(=O)NC(=O)N[C@@H](Cc1cc(F)cc(F)c1)C(=O)N(C)c1ccc2scnc2c1 [CA-121] | 990 nM | 7.3 µM
CN1CCN(S(=O)(=O)NC(=O)N[C@@H](Cc2cc(F)cc(F)c2)C(=O)N(C)c2ccc3scnc3c2)CC1 [CA-122] | 280 nM | > 33.3 µM
CN(C(=O)[C@H](Cc1cc(F)cc(F)c1)NC(=O)NS(=O)(=O)Nc1cccnc1)c1ccc2scnc2c1 [CA-123] | 160 nM | > 100 µM
CCNS(=O)(=O)NC(=O)N[C@@H](Cc1cc(F)cc(F)c1)C(=O)N(C)c1ccc2scnc2c1 [CA-124] | 110 nM | > 100 µM
CN(C(=O)[C@H](Cc1cc(F)cc(F)c1)NC(=O)NS(=O)(=O)N(C)CCO)c1ccc2scnc2c1 [CA-125] | 160 nM | > 100 µM
CN(C(=O)[C@H](Cc1cc(F)cc(F)c1)NC(=O)NS(=O)(=O)NCc1ccccc1)c1ccc2scnc2c1 [CA-126] | 520 nM | > 100 µM
CN(C(=O)[C@H](Cc1cc(F)cc(F)c1)NC(=O)NS(=O)(=O)NCC1CC1)c1ccc2scnc2c1 [CA-127] | 60 nM | > 100 µM
COC1CN(S(=O)(=O)NC(=O)N[C@@H](Cc2cc(F)cc(F)c2)C(=O)N(C)c2ccc3scnc3c2)C1 [CA-128] | 100 nM | > 100 µM
CN(C(=O)[C@H](Cc1cc(F)cc(F)c1)NC(=O)NS(=O)(=O)N1CC(C)(O)C1)c1ccc2scnc2c1 [CA-129] | 140 nM | > 100 µM

SMILES | EC50 [1] | CC50 at 4 days [2]
CN(C(=O)[C@H](Cc1cc(F)cc(F)c1)NC(=O)NS(=O)(=O)N1CC(F)(F)C1)c1ccc2scnc2c1 [CA-130] | 450 nM | > 100 µM
CN(C(=O)[C@H](Cc1cc(F)cc(F)c1)NC(=O)NS(=O)(=O)N1CCC[C@H]1CO)c1ccc2scnc2c1 [CA-131] | 210 nM | > 100 µM
CN(C(=O)[C@H](Cc1cc(F)cc(F)c1)NC(=O)NS(=O)(=O)NC1CCC1)c1ccc2scnc2c1 [CA-132] | 50 nM | > 100 µM
CN(C(=O)[C@H](Cc1cc(F)cc(F)c1)NC(=O)NS(=O)(=O)N1CCC(Cc2ccccc2)CC1)c1ccc2scnc2c1 [CA-133] | 720 nM | 86.4 µM
CN(C(=O)[C@H](Cc1cc(F)cc(F)c1)NC(=O)NS(=O)(=O)NCc1ccccn1)c1ccc2scnc2c1 [CA-134] | 430 nM | > 100 µM
CN(C(=O)[C@H](Cc1cc(F)cc(F)c1)NC(=O)NS(=O)(=O)NCc1cccnc1)c1ccc2scnc2c1 [CA-135] | 1530 nM | > 100 µM
CC(C)NS(=O)(=O)NC(=O)N[C@@H](Cc1cc(F)cc(F)c1)C(=O)N(C)c1ccc2scnc2c1 [CA-136] | 60 nM | > 100 µM
CC(=O)NCCNS(=O)(=O)NC(=O)N[C@@H](Cc1cc(F)cc(F)c1)C(=O)N(C)c1ccc2scnc2c1 [CA-137] | 1220 nM | > 100 µM
CN(C(=O)[C@H](Cc1cc(F)cc(F)c1)NC(=O)NS(=O)(=O)NCCO)c1ccc2scnc2c1 [CA-138] | 270 nM | > 100 µM
CN(C(=O)[C@H](Cc1cc(F)cc(F)c1)NC(=O)NS(=O)(=O)N(C)Cc1ccccc1)c1ccc2scnc2c1 [CA-139] | 220 nM | > 100 µM
CC(C)CN(C)S(=O)(=O)NC(=O)N[C@@H](Cc1cc(F)cc(F)c1)C(=O)N(C)c1ccc2scnc2c1 [CA-140] | 40 nM | > 100 µM
CCCN(C)S(=O)(=O)NC(=O)N[C@@H](Cc1cc(F)cc(F)c1)C(=O)N(C)c1ccc2scnc2c1 [CA-141] | 40 nM | > 100 µM
CN(C(=O)[C@H](Cc1cc(F)cc(F)c1)NC(=O)NS(=O)(=O)NC1CC1)c1ccc2scnc2c1 [CA-142] | 40 nM | > 100 µM
CN(C(=O)[C@H](Cc1cc(F)cc(F)c1)NC(=O)NS(=O)(=O)NCC(C)(C)C)c1ccc2scnc2c1 [CA-143] | 50 nM | > 100 µM
CC(C)CNS(=O)(=O)NC(=O)N[C@@H](Cc1cc(F)cc(F)c1)C(=O)N(C)c1ccc2scnc2c1 [CA-144] | 40 nM | > 100 µM
CC(C)CCNS(=O)(=O)NC(=O)N[C@@H](Cc1cc(F)cc(F)c1)C(=O)N(C)c1ccc2scnc2c1 [CA-145] | 120 nM | > 100 µM
CCCNS(=O)(=O)NC(=O)N[C@@H](Cc1cc(F)cc(F)c1)C(=O)N(C)c1ccc2scnc2c1 [CA-146] | 50 nM | > 100 µM
CC(C)N(C)S(=O)(=O)NC(=O)N[C@@H](Cc1cc(F)cc(F)c1)C(=O)N(C)c1ccc2scnc2c1 [CA-147] | 80 nM | > 100 µM
CC(=O)N1CCN(S(=O)(=O)NC(=O)N[C@@H](Cc2cc(F)cc(F)c2)C(=O)N(C)c2ccc3scnc3c2)CC1 [CA-148] | 10300 nM | > 100 µM
COCCN(C)S(=O)(=O)NC(=O)N[C@@H](Cc1cc(F)cc(F)c1)C(=O)N(C)c1ccc2scnc2c1 [CA-149] | 80 nM | > 100 µM
Cc1cnc(CNS(=O)(=O)NC(=O)N[C@@H](Cc2cc(F)cc(F)c2)C(=O)N(C)c2ccc3scnc3c2)cn1 [CA-150] | 460 nM | > 100 µM
CN(C(=O)[C@H](Cc1cc(F)cc(F)c1)NC(=O)NS(=O)(=O)N1CCNC(=O)C1)c1ccc2scnc2c1 [CA-151] | 1070 nM | > 100 µM
COCCNS(=O)(=O)NC(=O)N[C@@H](Cc1cc(F)cc(F)c1)C(=O)N(C)c1ccc2scnc2c1 [CA-153] | 150 nM | 9 µM
CCN(C)S(=O)(=O)NC(=O)N[C@@H](Cc1cc(F)cc(F)c1)C(=O)N(C)c1ccc2scnc2c1 [CA-154] | 30 nM | > 50 µM
CN(C(=O)[C@H](Cc1cc(F)cc(F)c1)NC(=O)NS(=O)(=O)N1CCC(O)CC1)c1ccc2scnc2c1 [CA-155] | 200 nM | > 100 µM
